Usually IC50 stands for the concentration that inhibits the measured activity by half. For orientation: Cmax means the highest concentration seen after dosing.

Results on 13 molecules are retold here after PMC5309220, “Screening for Small Molecule Inhibitors of Statin-Induced APP C-terminal Toxic Fragment Production” (Frontiers in Pharmacology, 2017).

For data set [1], the system named is cerivastatin-induced APPΔC31 production in CHO-7W cells. Briefly: APPΔC31 ELISA validation assay, cerivastatin-induced. In kind it is cell-based, Chinese hamster. The note with it: 24 h; for inhibition of APPΔC31 production (in words) / IC50: CHO-7W; for inhibition of APPΔC31 production (in words) / APPΔC31 Inh. (mean %): 10 μM cerivastatin; for inhibition of APPΔC31 production (in words): thapsigargin 0.033-0.3 μM, 2,5-Di-tert-butylhydroquinone 1 and 10 μM; for APPΔC31 Inh. (mean %): CHO-7W cells, test concentration not given; for IC50: Cricetulus griseus, (E) ELISA, cerivastatin-induced, read-out: IC50 (E), APPΔC31 inhibition. On the procedure:
The APPΔC31 ELISA developed in partnership with Enzo Life Sciences (ADI-900-227) follows a standard sandwich ELISA design wherein a monoclonal N-terminal APP-specific antibody is used to coat the wells of the microtiter plate (capture antibody) and the anti-APPΔC31 cleavage site-specific polyclonal antibody serves as the detection antibody. An HRP-conjugated secondary antibody is then added and a colorimetric signal generated by enzymatic conversion of the tetramethylbenzidine (TMB) substrate. Protein levels were first determined using a colorimetric coomassie assay (Coomassie Plus, Thermo).
A subset of hits from our HTS was validated in a secondary assay. […] Thapsigargin also acts as a sarco/endoplasmic reticulum calcium ATPase (SERCA) inhibitor. Therefore, another SERCA inhibitor, 2,5-Di-tert-butylhydroquinone, was also added to the testing. In this secondary assay, CHO-7W cells were cultured as described above and plated into 24-well dishes at ∼200K/well. […] These hits were selected for their potency in primary screen, their structural features, their known activities, and availability of compound for additional testing. There were cerivastatin-only (negative control), + QVD-OPh (positive control), and for viability, vehicle-only (negative) controls. Cells were harvested by removing the media to a tube, adding […] trypsin to detach cells then neutralizing with media. […] Cells were centrifuged at 5000 rpm (2300 × g) for 5 min. Cell pellets were frozen until use. Forty μL cold RIPA buffer plus complete protease inhibitors (Roche) was added to each pellet and the pellets were reconstituted by pipetting up and down, incubating on ice for 30 min, vortexing, and centrifugation as above. Cell lysate supernatants were then assayed by APPΔC31 ELISA as described above. For most compounds, multiple/repeat studies were performed and two wells used for each condition. Statistical comparison was performed using one-way ANOVA for multiple comparisons, with a Dunnett post hoc test to compare each condition to the control. Further dose-response studies were performed on select compounds.

Data set [2] concerns CHO-7W cells. As to conditions: with 10 μM cerivastatin.
The test system of data set [3] is APPΔC31 production in CHO-7W cells. Briefly: Statin induction of APPΔC31, ELISA. In kind it is cell-based, Chinese hamster. As to conditions: 24 h, statins at 1, 5 and 10 μM. Here is the method:
An HRP-conjugated secondary antibody is then added and a colorimetric signal generated by enzymatic conversion of the tetramethylbenzidine (TMB) substrate. Protein levels were first determined using a colorimetric coomassie assay (Coomassie Plus, Thermo).
APPΔC31 was determined in cell lysates by ELISA.

The test system of data set [4] is cerivastatin-induced APPΔC31 in CHO-7W cells. Briefly: APPΔC31 AlphaLISA dose-response, cerivastatin-induced. In kind it is cell-based, Chinese hamster. As to conditions: 24 h; for % Min (APPΔC31 dose-response): AlphaLISA dose-response (Figure 5C), cerivastatin-stimulated; for inhibition of cerivastatin-induced APPΔC31 (in words): dose-response curves. On the procedure:
The APPΔC31 AlphaLISA assay (Figures 2C–E) was run directly in the plate with the cell lysate as described above in “AlphaLISA to detect APPΔC31.” APPΔC31 levels were measured using the Envision plate reader and data were normalized to DMSO (100% APPΔC31 production) and Q-VD-OPh (MP Biomedicals) pan-caspase inhibitor at 30 μM (0%); these controls were present on each plate. In addition, some compounds of interest were further analyzed in a dose-response curve to determine IC50 values.
The broad-spectrum pan-caspase inhibitor Q-VD-OPh served as the positive control.
Lysates were prepared and APPΔC31 determined by ELISA. (B) CHO-7W cells were treated with 10 μM cerivastatin plus increasing doses of caspase and MEK inhibitors for 24 h. Lysates were prepared and APPΔC31 determined by AlphaLISA. Click here for additional data file.
(In general: In Alpha technology, singlet oxygen from a donor bead excites a nearby acceptor bead.)

Data set [5] in a line: PAMPA / immobilized artificial membrane (IAM.PC.DD2) chromatography. In kind it is in vitro ADME. A general note: The PAMPA barrier holds no transporters, so it reflects passive diffusion.
Data set [6] can be described thus: In vivo pharmacokinetic analysis of spiperone. Also noted: species or system mice (C57B6). On the procedure: As PAMPA is merely a predictive analysis of brain permeability, a pharmacokinetic (PK) study with spiperone was performed. […] Another 5 mice were injected intraperitoneally (IP) at the same dose. One mouse was euthanized from each dosing route group at 1, 2, 4, 6, and 8 h. This is done by ketamine/xylazine over- anesthesia followed by blood collection for plasma isolation by cardiac puncture, and transcardial perfusion of tissue with saline to remove residual blood from the brain. Both plasma and brain tissue were sent to Integrated Analytical Solutions (IAS, Berkeley, CA, USA) for compound level analysis using an LC-MS-MS method.

The subject of data set [7] is CHO-7W cells. In words: Total protein in CHO-7W cell lysates (Coomassie Plus). In kind it is cell-based, Chinese hamster. As to conditions: n = 1. Here is the method:
(§1) In an additional study (Supplementary Figure S5A), measurement of the α secretase fragment of full length (FL) APP – soluble APP alpha (sAPPα) – was performed using cell media by ELISA (IBL). Furthermore, in two studies (Supplementary Figures S5B,C), total protein levels in CHO-7W cell lysates were determined by Coomassie Plus protein assay (Pierce).
(§2) Supplementary file Data_Sheet_1.docx: FIGURE S5 Effect of lead compounds on protein concentration and sAPPα. […] (B) Total protein from lysates of CHO-7W cells treated with either 30 μM QVD or 10 μM Sp alone for 24 h was similar to the vehicle control (n = 1). (C) Total protein from CHO-7W lysates treated with 10 μM CS alone or in combination with QVD, Sp, or 3′F-Sp at the concentrations shown increased (n = 1). Statistical analysis was performed using one-way ANOVA and Dunnett post-test for comparison to the 10 μM CS control (^∗∗p < 0.001, ^∗∗∗p < 0.0001). Click here for additional data file.

For the next data set, the system named is sAPPα in CHO-7W cultures. Briefly: sAPPα ELISA in cell media. In kind it is cell-based, Chinese hamster. The note with it: QVD, Sp, 3′F-Sp at 10, 30, and 30 mM, respectively (so in the source), with 10 μM cerivastatin, 24 h, vs CS alone, n = 2. On the procedure: as §1, §2
On the technique in general: ELISA stands for enzyme-linked immunosorbent assay.

Setting [8] is: low concentrations (thapsigargin 0.033-0.3 μM, 2,5-Di-tert-butylhydroquinone 1 and 10 μM).

Read-outs that look alike come from different tables or passages of the source.

As to `CC(C)(C)c1cc(O)c(C(C)(C)C)cc1O` [2,5-Di-tert-butylhydroquinone], in data set [1], the “inhibition of APPΔC31 production (in words)” value is given as “very effective”. In addition, the “cell survival rescue (in words)” value with CHO-7W cells [2] (setting [8]) is recorded as “highest cell survival”.
As for `CC(C)c1c(C(=O)Nc2ccccc2)c(-c2ccccc2)c(-c2ccc(F)cc2)n1CC[C@@H](O)C[C@@H](O)CC(=O)O` [Atorvastatin], in data set [3], the “induction of APPΔC31 (in words)” value was “much less effective”.
For `O=c1c(O)c(-c2ccc(O)cc2)oc2cc(O)cc(O)c12` [Kaempferol], in data set [1], the “APPΔC31 Inh. (mean %)” value worked out at 65% and the 50% inhibitory concentration (IC50) was over 10 µM.
Take `O=c1[nH]c2ccccc2n1C1CCN(CCCC(c2ccc(F)cc2)c2ccc(F)cc2)CC1` [Pimozide]: in data set [4], the “% Min (APPΔC31 dose-response)” value was 19%. Moreover, in data set [4] (Cricetulus griseus, (A) AlphaLISA, cerivastatin-induced, read-out: IC50 (A), APPΔC31 inhibition), the IC50 worked out at 3.6 µM. Also, the “APPΔC31 Inh. (mean %)” value in data set [1] is recorded as 98%. In data set [5] (IAM.PC.DD2 column, water/methanol gradient), the “KIAM (IAM capacity factor)” value is 3.3. The “cell survival rescue (in words)” value in the data set with CHO-7W cells [2] (at 30 μM, among hits from HTS) is on record as “greatest cell survival rescue effects”.
Consider `CO[C@H]1C[C@@H]2CC[C@@H](C)[C@@](O)(O2)C(=O)C(=O)N2CCCC[C@H]2C(=O)O[C@H]([C@H](C)C[C@@H]2CC[C@@H](O)[C@H](OC)C2)CC(=O)[C@H](C)/C=C(\C)[C@@H](O)[C@@H](OC)C(=O)[C@H](C)C[C@H](C)/C=C/C=C/C=C/1C` [Rapamycin], for which, in data set [1], the “APPΔC31 Inh. (mean %)” value was 99% and the IC50 is over 10 µM. For the same molecule, in the data set with CHO-7W cells [2] (at 30 μM, among hits from HTS), the “cell survival rescue (in words)” value is “greatest cell survival rescue effects”.
Turning to `Oc1ccc(-c2nc(-c3ccncc3)c(-c3ccc(F)cc3)[nH]2)cc1` [SB202190], in data set [1], the “APPΔC31 Inh. (mean %)” value is recorded as 58% and the IC50 was over 10 µM.
Consider `Cn1cc(C2=C(c3ccc(Cl)cc3Cl)C(=O)NC2=O)c2ccccc21` [SB216763], for which, in data set [1], the “APPΔC31 Inh. (mean %)” value worked out at 54% and the 50% inhibitory concentration (IC50) is over 10 µM.
In the case of `N#C/C(=C(/N)Sc1ccc(N)cc1)c1ccccc1C(F)(F)F` [SL327], the “inhibition of cerivastatin-induced APPΔC31 (in words)” value in data set [4] (10 μM cerivastatin, AlphaLISA) is recorded as “ineffective”.
As for `O=C(CCCN1CCC2(CC1)C(=O)NCN2c1ccccc1)c1ccc(F)cc1` [Spiperone], the “% Min (APPΔC31 dose-response)” value in data set [4] is on record as 23%. Further, the Kp in data set [6] (male, C57B6, brain and plasma, other: subcutaneous and intraperitoneal (both routes), 0.25 mg/mouse, SQ and IP routes, read-out: brain:plasma ratio) was about 0.5. For the same molecule, the Cmax in data set [6] (male, C57B6, brain, mouse, intraperitoneal (IP), 10 mg/kg, n = 1 per time point, read-out: peak brain level (Cmax)) was about 205 ng/g. For the same molecule, the “time of peak brain level” value was 1 h in data set [6] (mouse, IP injection at 10 mg/kg); 1 h in data set [6] (mouse, both the subcutaneous and intraperitoneal routes). Also, the peak brain level in data set [6] (mouse, subcutaneous, 50 μL of 5 mg/mL in DMSO, n = 1 per time point) was about 70 ng/g. Further, in data set [5] (from KIAM/MW^4 x 10^10, cut-off 0.85), the “BBB Penetration Prediction” value is “high (If KIAM/MW^4x10^10 > 0.85 the BBB penetration is predicted to be high)”. Moreover, the “cell survival rescue (in words)” value with CHO-7W cells [2] (at 30 μM, among hits from HTS) is on record as “greatest cell survival rescue effects”. Besides, the “effect on protein concentration in lysates, compound alone (in words)” value with CHO-7W cells [7] (QVD alone at 30 μM, spiperone alone at 10 μM, 24 h, vs vehicle) was “did not lower protein concentration”. Further, the “effect on total protein concentration with cerivastatin (in words)” value in the data set with CHO-7W cells [7] (QVD, spiperone, 3′fluorobenzylspiperone at 30, 10, and 10 μM, respectively, with 10 μM cerivastatin) is “increased total protein concentration”. In the data set on sAPPα in CHO-7W cultures, the “effect on sAPPα (in words)” value is “increased sAPPα”.
With `CC/C(=C(\c1ccccc1)c1ccc(OCCN(C)C)cc1)c1ccccc1` [Tamoxifen], in data set [1], the “APPΔC31 Inh. (mean %)” value worked out at 56%.
For the molecule `C/C=C(/C)C(=O)O[C@H]1C(C)=C2[C@H]([C@@H]1OC(=O)CCCCCCC)[C@@](C)(OC(C)=O)C[C@H](OC(=O)CCC)[C@@]1(O)[C@H]2OC(=O)[C@@]1(C)O` [Thapsigargin], in data set [1], the “APPΔC31 Inh. (mean %)” value worked out at 97%, the “inhibition of APPΔC31 production (in words)” value is “remarkably potent inhibitor” and the IC50 came out at 0.077 µM. Besides, the “cell survival rescue (in words)” value with CHO-7W cells [2] (setting [8]) is “highest cell survival”.
Turning to `CS/C(N)=C(C#N)/C(C#N)=C(\N)SC` [U0124], the “inhibition of cerivastatin-induced APPΔC31 (in words)” value in data set [4] (10 μM cerivastatin, AlphaLISA) is given as “ineffective”.
On to `N#CC(=C(/N)Sc1ccccc1N)/C(C#N)=C(/N)Sc1ccccc1N` [U0126], for which, in data set [4] (from 10 to 50 μM, 10 μM cerivastatin, AlphaLISA), the “reduction of APPΔC31” value is reported as about 25%.
